Measured values as given in PubChem BioAssay AID2060905 (Molecular Pharmacology Branch, DTP, NCI, 2025).

Tested on: 282377-053-R-J1-PDC complex spheroid viability
Test: Anticancer human tumor 282377-053-R-J1-PDC patient-derived colon adenocarcinoma cell line growth inhibition [RAS]
Settings: for IC50: curve of first compound; for viability, T/C: stronger effect = lower value
Procedure, shortened: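 Multi-cell-type spheroids: tumor cells plus HUVEC endothelial cells and mesenchymal stem cells. RAS-pathway inhibitors were combined with targeted agents, each dosed in half-log steps down from clinical Cmax, or from 10 microM when Cmax was unknown.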
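Also: spheroids exposed to agents for seven days before readout.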
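For viability, T/C in this document: luminescence viability as percent of DMSO vehicle control wells.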

`C=CC(=O)N1CCN(c2nc(OCC3CCCN3C)nc3c(F)c(-c4nc(N)cc(C)c4C(F)(F)F)c(Cl)cc23)C(C)C1` (centres undefined) + C#Cc1c(F)ccc2cc(O)cc(-c3ncc4c(N5CC6CCC(C5)N6)nc(OCC56CCCN5CC(F)C6)nc4c3F)c12 was tested. Which IC50 (second compound 0.0316 µM) did it give?
Its IC50 is over 1000 nM.

And the IC50 (second compound 0.1 µM)?
Its IC50 is over 1000 nM.

And the IC50 (second compound 0.316 µM)?
Its IC50 is over 1000 nM.

What about the IC50 (second compound 1 µM) of the same compound?
The IC50 was over 1000 nM.

And the IC50 (second compound 3.16 µM)?
The IC50 was over 1000 nM.

What about the IC50 (second compound 10 µM) of the same compound?
The IC50 was over 1000 nM.

And the viability, T/C (second compound 0.0316 µM, first compound 0.00316 µM)?
The viability, T/C was 111%.

What about the viability, T/C (second compound 0.0316 µM, first compound 0.01 µM) of the same compound?
Its viability, T/C is 128%.

What about the viability, T/C (second compound 0.0316 µM, first compound 0.0316 µM) of the same compound?
The viability, T/C was 132%.

What about the viability, T/C (second compound 0.0316 µM, first compound 0.1 µM) of the same compound?
Its viability, T/C is 108%.

What about the viability, T/C (second compound 0.0316 µM, first compound 0.316 µM) of the same compound?
Its viability, T/C is 107%.

And the viability, T/C (second compound 0.0316 µM, first compound 1 µM)?
Its viability, T/C is 123%.

What about the viability, T/C (second compound 0.1 µM, first compound 0.00316 µM) of the same compound?
The viability, T/C was 98.7%.

What about the viability, T/C (second compound 0.1 µM, first compound 0.01 µM) of the same compound?
Its viability, T/C is 96.9%.

What about the viability, T/C (second compound 0.1 µM, first compound 0.0316 µM) of the same compound?
Its viability, T/C is 97.2%.

What about the viability, T/C (second compound 0.1 µM, first compound 0.1 µM) of the same compound?
Its viability, T/C is 96.4%.

And the viability, T/C (second compound 0.1 µM, first compound 0.316 µM)?
Its viability, T/C is 91.6%.

What about the viability, T/C (second compound 0.1 µM, first compound 1 µM) of the same compound?
The viability, T/C was 84.4%.

What about the viability, T/C (second compound 0.316 µM, first compound 0.00316 µM) of the same compound?
The viability, T/C was 106%.

And the viability, T/C (second compound 0.316 µM, first compound 0.01 µM)?
The viability, T/C was 105%.

And the viability, T/C (second compound 0.316 µM, first compound 0.0316 µM)?
The viability, T/C was 91%.

What about the viability, T/C (second compound 0.316 µM, first compound 0.1 µM) of the same compound?
The viability, T/C was 99.5%.

What about the viability, T/C (second compound 0.316 µM, first compound 0.316 µM) of the same compound?
Its viability, T/C is 96.7%.

And the viability, T/C (second compound 0.316 µM, first compound 1 µM)?
The viability, T/C was 104%.

What about the viability, T/C (second compound 1 µM, first compound 0.00316 µM) of the same compound?
The viability, T/C was 99.6%.

What about the viability, T/C (second compound 1 µM, first compound 0.01 µM) of the same compound?
The viability, T/C was 90.9%.

And the viability, T/C (second compound 1 µM, first compound 0.0316 µM)?
Its viability, T/C is 92.8%.

And the viability, T/C (second compound 1 µM, first compound 0.1 µM)?
Its viability, T/C is 90.6%.

What about the viability, T/C (second compound 1 µM, first compound 0.316 µM) of the same compound?
The viability, T/C was 118%.

What about the viability, T/C (second compound 1 µM, first compound 1 µM) of the same compound?
The viability, T/C was 97.5%.

What about the viability, T/C (second compound 3.16 µM, first compound 0.00316 µM) of the same compound?
The viability, T/C was 91.1%.

What about the viability, T/C (second compound 3.16 µM, first compound 0.01 µM) of the same compound?
The viability, T/C was 109%.

And the viability, T/C (second compound 3.16 µM, first compound 0.0316 µM)?
Its viability, T/C is 107%.

And the viability, T/C (second compound 3.16 µM, first compound 0.1 µM)?
The viability, T/C was 98.6%.

And the viability, T/C (second compound 3.16 µM, first compound 0.316 µM)?
Its viability, T/C is 108%.

What about the viability, T/C (second compound 3.16 µM, first compound 1 µM) of the same compound?
The viability, T/C was 123%.

And the viability, T/C (second compound 10 µM, first compound 0.00316 µM)?
Its viability, T/C is 100%.

And the viability, T/C (second compound 10 µM, first compound 0.01 µM)?
The viability, T/C was 112%.

And the viability, T/C (second compound 10 µM, first compound 0.0316 µM)?
The viability, T/C was 116%.

And the viability, T/C (second compound 10 µM, first compound 0.1 µM)?
The viability, T/C was 102%.

And the viability, T/C (second compound 10 µM, first compound 0.316 µM)?
Its viability, T/C is 85.1%.

And the viability, T/C (second compound 10 µM, first compound 1 µM)?
Its viability, T/C is 107%.

With `CC1(C)CCC(Nc2ncc(C(F)(F)F)c(-c3c[nH]c4c(P(C)(C)=O)c(C#N)ccc34)n2)CN1` (centres undefined) + C#Cc1c(F)ccc2cc(O)cc(-c3ncc4c(N5CC6CCC(C5)N6)nc(OCC56CCCN5CC(F)C6)nc4c3F)c12 as the compound, how does the IC50 (second compound 0.0316 µM) read?
The IC50 was over 300 nM.

And the IC50 (second compound 0.1 µM)?
Its IC50 is over 300 nM.

What about the IC50 (second compound 0.316 µM) of the same compound?
Its IC50 is over 300 nM.

And the IC50 (second compound 1 µM)?
Its IC50 is over 300 nM.

What about the IC50 (second compound 3.16 µM) of the same compound?
Its IC50 is over 300 nM.

What about the IC50 (second compound 10 µM) of the same compound?
The IC50 was over 300 nM.

And the viability, T/C (second compound 0.0316 µM, first compound 0.000949 µM)?
The viability, T/C was 142%.

And the viability, T/C (second compound 0.0316 µM, first compound 0.003 µM)?
Its viability, T/C is 109%.

And the viability, T/C (second compound 0.0316 µM, first compound 0.00949 µM)?
Its viability, T/C is 91.4%.

And the viability, T/C (second compound 0.0316 µM, first compound 0.03 µM)?
The viability, T/C was 69%.

What about the viability, T/C (second compound 0.0316 µM, first compound 0.0949 µM) of the same compound?
Its viability, T/C is 71.2%.

What about the viability, T/C (second compound 0.0316 µM, first compound 0.3 µM) of the same compound?
Its viability, T/C is 66.8%.

What about the viability, T/C (second compound 0.1 µM, first compound 0.000949 µM) of the same compound?
The viability, T/C was 103%.

And the viability, T/C (second compound 0.1 µM, first compound 0.003 µM)?
The viability, T/C was 132%.

And the viability, T/C (second compound 0.1 µM, first compound 0.00949 µM)?
Its viability, T/C is 87.1%.

What about the viability, T/C (second compound 0.1 µM, first compound 0.03 µM) of the same compound?
The viability, T/C was 72.6%.

What about the viability, T/C (second compound 0.1 µM, first compound 0.0949 µM) of the same compound?
Its viability, T/C is 71.9%.

What about the viability, T/C (second compound 0.1 µM, first compound 0.3 µM) of the same compound?
The viability, T/C was 72.5%.

And the viability, T/C (second compound 0.316 µM, first compound 0.000949 µM)?
Its viability, T/C is 118%.

What about the viability, T/C (second compound 0.316 µM, first compound 0.003 µM) of the same compound?
Its viability, T/C is 92.6%.

What about the viability, T/C (second compound 0.316 µM, first compound 0.00949 µM) of the same compound?
Its viability, T/C is 92.3%.

And the viability, T/C (second compound 0.316 µM, first compound 0.03 µM)?
Its viability, T/C is 67.1%.

And the viability, T/C (second compound 0.316 µM, first compound 0.0949 µM)?
Its viability, T/C is 71.9%.

And the viability, T/C (second compound 0.316 µM, first compound 0.3 µM)?
The viability, T/C was 57.8%.

What about the viability, T/C (second compound 1 µM, first compound 0.000949 µM) of the same compound?
The viability, T/C was 112%.

And the viability, T/C (second compound 1 µM, first compound 0.003 µM)?
Its viability, T/C is 110%.

And the viability, T/C (second compound 1 µM, first compound 0.00949 µM)?
The viability, T/C was 96.9%.

What about the viability, T/C (second compound 1 µM, first compound 0.03 µM) of the same compound?
Its viability, T/C is 80.4%.

What about the viability, T/C (second compound 1 µM, first compound 0.0949 µM) of the same compound?
Its viability, T/C is 74.9%.

And the viability, T/C (second compound 1 µM, first compound 0.3 µM)?
The viability, T/C was 67.7%.

And the viability, T/C (second compound 3.16 µM, first compound 0.000949 µM)?
The viability, T/C was 93%.

And the viability, T/C (second compound 3.16 µM, first compound 0.003 µM)?
Its viability, T/C is 103%.

And the viability, T/C (second compound 3.16 µM, first compound 0.00949 µM)?
Its viability, T/C is 98.8%.

And the viability, T/C (second compound 3.16 µM, first compound 0.03 µM)?
Its viability, T/C is 75.4%.

What about the viability, T/C (second compound 3.16 µM, first compound 0.0949 µM) of the same compound?
The viability, T/C was 83.6%.

What about the viability, T/C (second compound 3.16 µM, first compound 0.3 µM) of the same compound?
Its viability, T/C is 72.9%.

And the viability, T/C (second compound 10 µM, first compound 0.000949 µM)?
Its viability, T/C is 113%.

What about the viability, T/C (second compound 10 µM, first compound 0.003 µM) of the same compound?
Its viability, T/C is 87.3%.

What about the viability, T/C (second compound 10 µM, first compound 0.00949 µM) of the same compound?
The viability, T/C was 98%.

What about the viability, T/C (second compound 10 µM, first compound 0.03 µM) of the same compound?
Its viability, T/C is 88.4%.

What about the viability, T/C (second compound 10 µM, first compound 0.0949 µM) of the same compound?
The viability, T/C was 98.6%.

What about the viability, T/C (second compound 10 µM, first compound 0.3 µM) of the same compound?
Its viability, T/C is 76.7%.
